Assay results taken from EP4703358A1, “BENZO SIX-MEMBERED HETEROCYCLIC GSPT1 PROTEIN DEGRADATION AGENT AND USE THEREOF” (China Pharmaceutical University, priority 2023, dated 2024).

Legend:
GSPT1 protein = target: T1, GSPT1 protein (Homo sapiens, UniProt P15170+Q96SW2); test: Degradation of GSPT1 in KG-1 cells (Western blot); type: cell-based; parameters: percent GSPT1 degradation: dose or concentration left out as unconfirmed
T1 construct: host or cells: KG-1 cells
Description: KG-1 cells (ATCC) were grown in an IMDM culture medium (containing 20% FBS). After centrifugation and counting, the cell concentration was adjusted. The cells were plated onto 6-well plates at 10^6 cells/well, with 1350 µL per well. 150 µL of DMSO and the test compounds of the present disclosure (compound concentration: 200 nM) were added. The plates were incubated in an incubator at 37 °C with 5% CO2 for 4 hours. The cells were centrifuged, and the culture medium was discarded. PBS was added to wash the cells and then discarded. Whole cell lysates were prepared using a protease inhibitor cocktail (100×, Fude Biological), a protein phosphatase inhibitor cocktail (100×, Fude Biological), SuperNuclease (Beyotime), and a high-intensity RIPA lysis buffer (Thermo Fisher) and placed on ice for 30 minutes. After centrifugation, the cell debris precipitates were discarded, and the whole cell lysate supernatants were collected and transferred to new centrifuge tubes. After a BCA protein assay, samples were prepared using a 5× loading buffer (Thermo Fisher). The samples were subjected to protein electrophoresis separation in a 4-20% precast gel (SDS-PAGE gel), transferred to a PVDF membrane, then blocked with 5% NFDM/TBST at room temperature for 1 hour, incubated overnight with primary antibodies at 4 °C, and incubated with a secondary antibody at room temperature for 2 hours the next day. Signals were detected using a MINICHEMITM imaging system.
Primary antibodies: • Anti-GSPT1: Abcam ab234433 • Anti-beta actin: Fude Biological FD0060
Secondary antibody: Anti-rabbit peroxidase-linked secondary antibody: Fude Biological FDG007
The degradation effects of the compounds on GSPT1 protein are shown in Table 1, where A represents a GSPT1 protein degradation percentage of no less than 80%, B represents a degradation percentage of less than 80% but no less than 50%, C represents a degradation percentage of less than 50% but no less than 25%, and D represents a degradation percentage of less than 25%. Table 1. The degradation of GSPT1 protein by compounds

KG-1 cells = test: Antiproliferative activity against KG-1 cells (CCK8); type: cell-based; settings: 72 hours
Description: KG-1 cells in the logarithmic growth phase were diluted in a culture medium (RPMI + 10% FBS) and plated onto 96-well plates at 5000 cells/well, and the plates were incubated in an incubator at 37 °C with 5% CO2 for 24 hours. 10 mM stock solutions of the test compounds of the present disclosure in DMSO were prepared and diluted with the culture medium to set 9 concentration gradients. Three replicate wells were set for each concentration. After compound addition, the plates were incubated in an incubator at 37 °C with 5% CO2 for 72 hours. The cell proliferation was assessed using the CCK8 method. The cell growth inhibition IC50 values of the compounds were determined using an enzyme labeling method. The IC50 values were calculated using GraphPad Prism 7 software.
The antiproliferative activity of the compounds against KG-1 cells is shown in Table 2, where A represents IC50 < 1 nM, B represents 1 ≤ IC50 < 10 nM, C represents 10 nM ≤ IC50 < 100 nM, D represents 100 nM ≤ IC50 < 1000 nM, and E represents IC50 ≥ 1000 nM. Table 2. The antiproliferative activity of compounds against KG-1 cells

[1] = KG-1 cells, compound concentration 200 nM, 4 hours

T1 sequence (P15170 whole entry): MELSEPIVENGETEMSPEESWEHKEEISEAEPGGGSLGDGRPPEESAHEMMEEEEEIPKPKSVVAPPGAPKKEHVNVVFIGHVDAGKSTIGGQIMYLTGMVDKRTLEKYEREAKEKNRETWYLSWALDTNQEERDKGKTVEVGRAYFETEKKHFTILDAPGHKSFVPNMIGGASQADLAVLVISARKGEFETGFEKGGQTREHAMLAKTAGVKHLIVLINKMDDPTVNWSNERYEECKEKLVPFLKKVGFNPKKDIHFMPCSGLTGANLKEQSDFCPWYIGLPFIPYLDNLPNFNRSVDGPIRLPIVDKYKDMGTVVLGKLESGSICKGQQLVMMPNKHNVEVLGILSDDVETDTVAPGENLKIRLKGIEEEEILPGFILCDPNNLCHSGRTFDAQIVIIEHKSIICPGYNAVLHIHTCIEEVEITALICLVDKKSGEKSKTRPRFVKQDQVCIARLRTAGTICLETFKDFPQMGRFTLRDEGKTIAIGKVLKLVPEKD
T1 sequence (Q96SW2 whole entry): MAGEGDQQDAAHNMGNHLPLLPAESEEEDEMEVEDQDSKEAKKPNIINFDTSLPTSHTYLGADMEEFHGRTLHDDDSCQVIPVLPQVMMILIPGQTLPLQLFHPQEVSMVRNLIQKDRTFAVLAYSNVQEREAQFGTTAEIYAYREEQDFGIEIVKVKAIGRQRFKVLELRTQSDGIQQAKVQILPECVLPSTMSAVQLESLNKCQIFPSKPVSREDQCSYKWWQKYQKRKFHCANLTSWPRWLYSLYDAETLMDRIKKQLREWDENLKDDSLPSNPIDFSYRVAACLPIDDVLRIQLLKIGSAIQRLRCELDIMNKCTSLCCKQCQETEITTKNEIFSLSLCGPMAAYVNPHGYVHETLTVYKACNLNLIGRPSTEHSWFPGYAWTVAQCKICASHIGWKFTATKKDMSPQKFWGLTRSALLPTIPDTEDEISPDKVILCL
T1 sequence (Q16531 whole entry partner): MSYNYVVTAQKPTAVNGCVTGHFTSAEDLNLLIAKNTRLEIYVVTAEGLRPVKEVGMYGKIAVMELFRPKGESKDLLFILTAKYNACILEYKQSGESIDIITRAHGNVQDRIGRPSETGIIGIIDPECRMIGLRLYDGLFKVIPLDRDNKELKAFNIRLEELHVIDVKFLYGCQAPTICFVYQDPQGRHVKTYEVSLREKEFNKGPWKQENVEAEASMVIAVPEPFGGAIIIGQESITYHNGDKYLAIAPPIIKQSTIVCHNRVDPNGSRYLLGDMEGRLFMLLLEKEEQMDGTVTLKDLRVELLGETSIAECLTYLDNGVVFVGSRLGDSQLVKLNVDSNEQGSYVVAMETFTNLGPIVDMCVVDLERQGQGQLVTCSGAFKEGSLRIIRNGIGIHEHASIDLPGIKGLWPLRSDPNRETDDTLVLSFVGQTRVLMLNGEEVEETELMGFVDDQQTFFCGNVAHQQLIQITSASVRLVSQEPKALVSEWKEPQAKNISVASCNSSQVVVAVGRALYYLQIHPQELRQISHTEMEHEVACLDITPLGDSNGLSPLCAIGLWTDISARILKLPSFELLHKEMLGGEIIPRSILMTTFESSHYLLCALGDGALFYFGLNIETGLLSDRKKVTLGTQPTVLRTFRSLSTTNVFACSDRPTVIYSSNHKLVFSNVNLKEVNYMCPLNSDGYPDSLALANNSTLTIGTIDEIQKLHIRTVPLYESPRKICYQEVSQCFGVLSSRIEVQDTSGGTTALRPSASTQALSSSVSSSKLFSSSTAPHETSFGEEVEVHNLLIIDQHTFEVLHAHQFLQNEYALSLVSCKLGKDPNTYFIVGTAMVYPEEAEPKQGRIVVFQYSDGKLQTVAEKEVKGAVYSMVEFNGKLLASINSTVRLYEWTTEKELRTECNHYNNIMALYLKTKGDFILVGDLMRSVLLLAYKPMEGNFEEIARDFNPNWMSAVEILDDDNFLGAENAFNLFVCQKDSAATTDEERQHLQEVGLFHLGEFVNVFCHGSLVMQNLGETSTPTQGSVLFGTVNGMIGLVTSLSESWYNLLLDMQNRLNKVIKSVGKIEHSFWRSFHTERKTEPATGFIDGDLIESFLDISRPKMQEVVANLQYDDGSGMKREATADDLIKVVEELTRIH

| SMILES | percent GSPT1 degradation at 0.2 µM (GSPT1 protein; [1]) | IC50 (KG-1 cells; Homo sapiens) | percent GSPT1 degradation (GSPT1 protein; KG-1, 4 h, read-out: GSPT1 degradation) | GSPT1 degradation (GSPT1 protein; [1]) | IC50 (KG-1 cells) |
| --- | --- | --- | --- | --- | --- |
| C#Cc1ccc2c(c1)C=C(C(=O)NCc1ccc3c(c1)CN(C1CCC(=O)NC1=O)C3=O)CO2 (centres unmarked) [Compound A-15, N-((2-(2,6-Dioxopiperidin-3-yl)-1-oxoisoindolin-5-yl)methyl)-6-ethynyl-2H-chromene-3-carboxamide] | 50 to 80% | 100 to 1000 nM |  |  |  |
| Cc1cc2c(cc1F)OCC(C(=O)NCc1ccc3c(c1)CN(C1CCC(=O)NC1=O)C3=O)=C2 (centres unmarked) [Compound A-30, N-((2-(2,6-Dioxopiperidin-3-yl)-1-oxoisoindolin-5-yl)methyl)-7-fluoro-6-methyl-2H-chromene-3-carboxamide] | > 80% | 10 to 100 nM |  |  |  |
| Cc1cc2c(cc1Cl)OCC(C(=O)NCc1ccc3c(c1)CN(C1CCC(=O)NC1=O)C3=O)=C2 (centres unmarked) [Compound A-29, N-((2-(2,6-Dioxopiperidin-3-yl)-1-oxoisoindolin-5-yl)methyl)-7-chloro-6-methyl-2H-chromene-3-carboxamide] | > 80% | 10 to 100 nM |  |  |  |
| Cc1cccc2c1OCC(C(=O)NCc1ccc3c(c1)CN(C1CCC(=O)NC1=O)C3=O)=C2 (centres unmarked) [Compound A-21, N-((2-(2,6-Dioxopiperidin-3-yl)-1-oxoisoindolin-5-yl)methyl)-8-methyl-2H-chromene-3-carboxamide] | > 80% | 1 to 10 nM |  |  |  |
| N#Cc1ccc2c(c1)C=C(C(=O)NCc1ccc3c(c1)CN(C1CCC(=O)NC1=O)C3=O)CO2 (centres unmarked) [Compound A-11, N-((2-(2,6-Dioxopiperidin-3-yl)-1-oxoisoindolin-5-yl)methyl)-6-cyano-2H-chromene-3-carboxamide] | > 80% | 10 to 100 nM |  |  |  |
| CN(C)c1ccc2c(c1)C=C(C(=O)NCc1ccc3c(c1)CN(C1CCC(=O)NC1=O)C3=O)CO2 (centres unmarked) [Compound A-13, N-((2-(2,6-Dioxopiperidin-3-yl)-1-oxoisoindolin-5-yl)methyl)-6-(dimethylamino)-2H-chromene-3-carboxamide] | 50 to 80% | 10 to 100 nM |  |  |  |
| O=C1CCC(N2Cc3cc(CNC(=O)C4=Cc5cccc(F)c5OC4)ccc3C2=O)C(=O)N1 (centres unmarked) [Compound A-5, N-((2-(2,6-Dioxopiperidin-3-yl)-1-oxoisoindolin-5-yl)methyl)-8-fluoro-2H-chromene-3-carboxamide] | > 80% | 1 to 10 nM |  |  |  |
| O=C1CCC(N2Cc3cc(CNC(=O)C4=Cc5cc(Cl)ccc5OC4)ccc3C2=O)C(=O)N1 (centres unmarked) [Compound A-6, N-((2-(2,6-Dioxopiperidin-3-yl)-1-oxoisoindolin-5-yl)methyl)-6-chloro-2H-chromene-3-carboxamide] |  | 10 to 100 nM | > 80% |  |  |
| Cc1cccc2c1C=C(C(=O)NCc1ccc3c(c1)CN(C1CCC(=O)NC1=O)C3=O)CO2 (centres unmarked) [Compound A-22, N-((2-(2,6-Dioxopiperidin-3-yl)-1-oxoisoindolin-5-yl)methyl)-5-methyl-2H-chromene-3-carboxamide] | > 80% | 1 to 10 nM |  |  |  |
| O=C1CCC(N2Cc3cc(CNC(=O)C4=Cc5cccc(OC(F)(F)F)c5OC4)ccc3C2=O)C(=O)N1 (centres unmarked) [Compound A-19, N-((2-(2,6-Dioxopiperidin-3-yl)-1-oxoisoindolin-5-yl)methyl)-8-trifluoromethoxy-2H-chromene-3-carboxamide] | > 80% | 1 to 10 nM |  |  |  |
| O=C1CCC(N2Cc3cc(CNC(=O)C4=Cc5c(F)ccc(F)c5OC4)ccc3C2=O)C(=O)N1 (centres unmarked) [Compound A-36, N-((2-(2,6-Dioxopiperidin-3-yl)-1-oxoisoindolin-5-yl)methyl)-5,8-difluoro-2H-chromene-3-carboxamide] | > 80% | 1 to 10 nM |  |  |  |
| O=C1CCC(N2Cc3cc(CNC(=O)C4COc5ccc(Cl)cc5C4)ccc3C2=O)C(=O)N1 (centres unmarked) [Compound B-3, N-((2-(2,6-Dioxopiperidin-3-yl)-1-oxoisoindolin-5-yl)methyl)-6-chlorochromane-3-carboxamide] | > 80% | 1 to 10 nM |  |  |  |
| Cc1cc2c(cc1Cl)C=C(C(=O)NCc1ccc3c(c1)CN(C1CCC(=O)NC1=O)C3=O)CO2 (centres unmarked) [Compound A-28] |  |  |  | A (a GSPT1 protein degradation percentage of no less than 80%) | 10 to 100 nM |
| O=C1CCC(N2Cc3cc(CNC(=O)C4=Cc5cc(NC(=O)CO)ccc5OC4)ccc3C2=O)C(=O)N1 (centres unmarked) [Compound A-25, N-((2-(2,6-Dioxopiperidin-3-yl)-1-oxoisoindolin-5-yl)methyl)-6-(2-hydroxyacetamido)-2H-chromene-3-carboxamide] | 25 to 50% | ≥ 1000 nM |  |  |  |
| O=C1CCC(N2Cc3cc(CNC(=O)C4COc5ccc(F)cc5C4)ccc3C2=O)C(=O)N1 (centres unmarked) [Compound B-2, N-((2-(2,6-Dioxopiperidin-3-yl)-1-oxoisoindolin-5-yl)methyl)-6-fluorochromane-3-carboxamide] | > 80% | 1 to 10 nM |  |  |  |
| O=C1CCC(N2Cc3cc(CNC(=O)C4=Cc5cc(F)cc(F)c5OC4)ccc3C2=O)C(=O)N1 (centres unmarked) [Compound A-33, N-((2-(2,6-Dioxopiperidin-3-yl)-1-oxoisoindolin-5-yl)methyl)-6,8-difluoro-2H-chromene-3-carboxamide] | > 80% | 1 to 10 nM |  |  |  |
| COc1cccc2c1OCC(C(=O)NCc1ccc3c(c1)CN(C1CCC(=O)NC1=O)C3=O)=C2 (centres unmarked) [Compound A-20, N-((2-(2,6-Dioxopiperidin-3-yl)-1-oxoisoindolin-5-yl)methyl)-8-methoxy-2H-chromene-3-carboxamide] | > 80% | 1 to 10 nM |  |  |  |
| COc1ccc2c(c1)C=C(C(=O)NCc1ccc3c(c1)CN(C1CCC(=O)NC1=O)C3=O)CO2 (centres unmarked) [Compound A-8, N-((2-(2,6-Dioxopiperidin-3-yl)-1-oxoisoindolin-5-yl)methyl)-6-methoxy-2H-chromene-3-carboxamide] | 50 to 80% | 10 to 100 nM |  |  |  |
| O=C1CCC(N2Cc3c(ccc(CNC(=O)C4=Cc5cccc(OC(F)(F)F)c5OC4)c3F)C2=O)C(=O)N1 (centres unmarked) [Compound A-43, N-((2-(2,6-Dioxopiperidin-3-yl)-4-fluoro-1-oxoisoindolin-5-yl)methyl)-8-(trifluoromethoxy)-2H-chromene-3-carboxamide] | > 80% | 1 to 10 nM |  |  |  |
